Values quoted from earlier work in EP1239867B1, “METHODS FOR TREATING AND PREVENTING DAMAGE TO MUCOSAL TISSUE” (University of Southern California, priority 1999, dated 2005).
Square brackets hold non-standard residues; d marks the D form. Ends that are not written are not given here. Phe(4-NH2) = Nc1ccc(C[C@H](N)C(=O)O)cc1

Test system: AT2 receptor

Row | affinity for AT2 than AT1 (times higher) (selectivity AT2 over AT1, Speth and Kim, BBRC 169:997-1006 (1990)) [times] | Substance | binding characteristics (in words) (experimental models of Catalioto et al. 1994, Bryson et al. 1992)
1 | 100 | Asp-Arg-Val-Tyr-Ile-His-Pro-Phe [AII] | 
2 |  | Asp-Arg-Val-Tyr-Ile-Xaa-Pro-Phe (DRVYI[Phe(4-NH2)]PF) [p-aminophenylalanine6-AII] | comparable to AT2 antagonists
